Consider four compounds from BindingDB's records for PubMed 1650832 (Pfizer, 1991).

Molecules are shown by their SMILES.

For the assay, the target named is T1, Cysteinyl leukotriene receptor 2 (Cavia porcellus, UniProt Q2NNR4).
T1 sequence (Q2NNR4 whole entry): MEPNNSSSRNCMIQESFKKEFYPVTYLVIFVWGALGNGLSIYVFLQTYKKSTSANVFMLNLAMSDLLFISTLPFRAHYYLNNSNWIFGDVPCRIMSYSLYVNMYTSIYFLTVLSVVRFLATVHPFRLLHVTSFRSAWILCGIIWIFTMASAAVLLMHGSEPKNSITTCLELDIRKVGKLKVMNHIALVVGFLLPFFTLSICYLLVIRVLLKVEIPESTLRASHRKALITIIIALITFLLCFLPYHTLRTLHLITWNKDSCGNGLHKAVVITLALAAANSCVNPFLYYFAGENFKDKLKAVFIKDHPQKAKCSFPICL

On to `CCCCCC=CCC=CC=CC=CC(SCC(NC(=O)CCC(N)C(=O)O)C(=O)NCC(=O)O)C(O)CCCC(=O)O` (centres undefined) [CAS_5283121], for which the affinity, expressed as Ki, was 0.178 µM.

In the case of `CCCCC/C=C\C\C=C/C=C/C=C/[C@@H](SC[C@H](N)C(=O)O)[C@@H](O)CCCC(=O)O` [(5S-(5R*,6S*(S*),7E,9E,11Z,14Z))-6-((2-Amino-2-carboxyethyl)thio)-5-hydroxy-7,9,11,14-eicosatetraenoic acid], the Ki was 0.0355 µM. To `CCCCC/C=C\C\C=C/C=C/C=C/[C@@H](SC[C@H](N)C(=O)NCC(=O)O)[C@@H](O)CCCC(=O)O` [5S-hydroxy-6R-(S-cysteinylglycinyl)-7E,9E,11E,14Z-eicosatetraenoic acid] belongs 0.00049 µM. To `COc1cc(C(=O)NS(=O)(=O)c2ccccc2)ccc1Cn1ncc2ccc(NC(=O)OC3CCCC3)cc21` belongs 0.00689 µM.
